# Experimental data: patent publication US9199965B2, “Benzoimidazole derivatives and pharmaceutical composition comprising the same” (Daewoong Co., Ltd., priority 2005, dated 2015)
# What was measured:
# human vanilloid-1 (hVR1) = target: T1, human vanilloid-1 (hVR1) (Homo sapiens, UniProt Q8NER1); assay: Calcium influx of vanilloid receptor in hVR1-HEK293 cells (capsaicin-induced, Fluo-3/AM); assay type: cell-based; details: 1 μM capsaicin-induced intracellular calcium influx, read-out: Inhibitory Activity IC50
# T1 construct: expressed in transfected cells; host or cells: HEK293 Tet-on (hVR1-HEK293), doxycycline-induced
# T1 sequence (Q8NER1 whole entry): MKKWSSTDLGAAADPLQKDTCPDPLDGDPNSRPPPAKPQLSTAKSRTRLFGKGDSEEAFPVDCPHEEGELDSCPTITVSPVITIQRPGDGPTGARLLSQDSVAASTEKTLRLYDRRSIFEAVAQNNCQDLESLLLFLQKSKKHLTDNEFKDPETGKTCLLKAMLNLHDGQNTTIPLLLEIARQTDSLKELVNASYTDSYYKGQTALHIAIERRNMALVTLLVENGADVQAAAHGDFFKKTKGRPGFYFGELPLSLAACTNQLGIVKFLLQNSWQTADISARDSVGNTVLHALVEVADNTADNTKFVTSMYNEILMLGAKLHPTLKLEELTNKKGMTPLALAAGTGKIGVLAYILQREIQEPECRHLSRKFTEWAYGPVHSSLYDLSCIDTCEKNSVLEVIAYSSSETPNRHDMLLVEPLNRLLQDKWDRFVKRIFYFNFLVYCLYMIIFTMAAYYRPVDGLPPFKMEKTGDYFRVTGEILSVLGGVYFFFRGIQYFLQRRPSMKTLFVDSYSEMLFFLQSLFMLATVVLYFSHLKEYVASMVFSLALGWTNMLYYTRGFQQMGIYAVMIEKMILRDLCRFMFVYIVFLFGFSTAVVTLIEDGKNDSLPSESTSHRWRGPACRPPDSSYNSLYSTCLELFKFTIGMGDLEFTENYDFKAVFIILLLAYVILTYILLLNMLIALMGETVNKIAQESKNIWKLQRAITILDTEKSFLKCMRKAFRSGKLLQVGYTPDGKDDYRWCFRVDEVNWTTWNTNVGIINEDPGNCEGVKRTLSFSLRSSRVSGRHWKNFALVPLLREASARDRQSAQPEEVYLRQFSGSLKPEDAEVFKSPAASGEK
# Method: Experiments for calcium influx were performed to measure the activity of the compounds as antagonists.
# The cell strain hVR1-HEK293 is the human embryonic kidney (HEK) 293 Tet-on cell transfected with a human vanilloid-1 gene (pTRE2hyg-hVR1, 7.8 kb), which is capable of controlling the expression of VR1 according to the administration of deoxycycline, a tetracycline derivative analog. In a medium supplemented with deoxycycline two days before calcium influx experiments, the cell strain was cultured to induce the expression of VR1. After being grown to a confluency of about 80% in T75 flasks, hVR1-HEK293 was detached from the flask using trypsin. Cells harvested by centrifugation were suspended in a medium supplemented with 1 μg/mL of deoxycycline and diluted to a density of 2-4×10^5 cells/mL, after which a 100 μL aliquot of the cell suspension was added to each well of 96 well black plates. Before the measurement of calcium influx, the cells were incubated for two days at 37° C. in a 5% CO2 incubator.
# For use in calcium influx experiments, each compound was dissolved in dimethyl sulfoxide (DMSO).
# To measure an intracellular calcium influx, cells were incubated at 37° C. for 90 min in a medium containing the calcium indicator Fluo-3/AM so as to allow the fluorescent dye to penetrate into the cells. Then, the cells were washed three times with D-PBS (Dulbecco's phosphate buffered saline) containing 10 mM HEPES to remove the fluorescent dye which remained outside. 193 μL aliquot of D-PBS was added to each well, followed by the addition of various concentrations of compounds thereto. In order to measure the antagonistic activity of the compounds, calcium influx was induced by treatment with 1 μM capsaicin. The inhibitory effect of each compound on 1 μM capsaicin-induced intracellular calcium influx according to compound concentration was measured using a fluorescent analyzer and the data thus obtained were analyzed on the basis of the Hill's equation.
# rat TRPV1 = target: T2, rat TRPV1 (Rattus norvegicus, UniProt O35433); assay: Assay for inhibitory activity against VR1 patch clamp activity (capsaicin current, inside-out patch); assay type: cell-based; details: 1 μM compound with 10 μM capsaicin; rat TRPV1-transfected HEK293, inside-out patch; relative to capsaicin current before compound
# T2 construct: expressed in transfected cells; host or cells: HEK293
# T2 sequence (O35433 whole entry): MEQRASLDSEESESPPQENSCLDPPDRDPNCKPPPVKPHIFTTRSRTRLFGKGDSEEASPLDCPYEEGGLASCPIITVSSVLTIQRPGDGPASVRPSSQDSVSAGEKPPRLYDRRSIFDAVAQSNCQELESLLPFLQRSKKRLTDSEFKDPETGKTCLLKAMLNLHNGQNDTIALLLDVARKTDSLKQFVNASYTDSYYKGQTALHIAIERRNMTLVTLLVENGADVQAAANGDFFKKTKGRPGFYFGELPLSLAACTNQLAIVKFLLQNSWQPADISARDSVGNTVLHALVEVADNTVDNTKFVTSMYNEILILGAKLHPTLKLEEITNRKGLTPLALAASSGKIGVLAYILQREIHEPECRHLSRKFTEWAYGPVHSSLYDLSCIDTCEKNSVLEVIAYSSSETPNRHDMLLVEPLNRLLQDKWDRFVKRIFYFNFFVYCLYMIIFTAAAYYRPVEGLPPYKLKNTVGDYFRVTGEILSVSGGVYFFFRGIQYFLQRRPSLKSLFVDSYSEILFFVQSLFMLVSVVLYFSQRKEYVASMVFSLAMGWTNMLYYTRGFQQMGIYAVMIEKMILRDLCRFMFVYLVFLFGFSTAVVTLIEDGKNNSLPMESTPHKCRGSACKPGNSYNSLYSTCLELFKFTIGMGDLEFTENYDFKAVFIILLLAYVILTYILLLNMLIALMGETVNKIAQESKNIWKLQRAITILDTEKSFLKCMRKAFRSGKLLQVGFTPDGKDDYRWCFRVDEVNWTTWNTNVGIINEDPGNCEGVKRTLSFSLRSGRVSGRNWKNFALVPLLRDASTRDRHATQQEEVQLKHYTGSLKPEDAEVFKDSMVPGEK
# Method: Each of the compounds synthesized in the examples were dissolved in dimethyl sulfoxide (DMSO) at a concentration of 10 mM. For use in the assay for inhibitory activity against patch clamp activity, the solutions were diluted to a concentration of 1 μM with the same physiological saline as in the pipette solution of Table 1, below.
# 2) Assay for Inhibitory Activity Against VR1 Patch Clamp Activity
# In this experiment, changes in VR1 activity were recorded in current using an electrophysiological technique.
# For use in this experiment, a rat TRPV1 cDNA was transfected into a subcultured HEK293 strain with the aid of lipofectamin.
# The rat TRPV1 gene-transfected HEK293 cells were detached from the cell culture dishes with trypsin and distributed on a patch clamp recording chamber.
# A cover glass slip on the bottom of the patch clamp recording chamber was treated for 15 min or longer with a […] poly-L-lysine solution so that the HEK cells would readily adhere thereto. Cellular membranes were ruptured at room temperature (˜25° C.) from randomly selected HEK cells to perform an inside-out patch clamp technique. 10 μM of capsaicin was fed into the chamber (cytoplasmic side) to activate a capsaicin current through the VR1. When the capsaicin current reached a stable stage, each compound was added along with 10 μM of capsaicin to record the inhibitory activity of the compounds with regard to the current. The inhibition was expressed as percentages.
# Detected current was amplified using a Digidata 1200B A/D converter and an Axopatch 1D amplifier (Axon instruments Inc.), and the data were recorded and analyzed with the aid of a computer. The inhibitory activity of each compound was expressed as a percentage relative to the capsaicin current immediately before the administration of each compound.
Compound,IC50 (human vanilloid-1 (hVR1)) [nM],inhibition at 1 µM (rat TRPV1) [%]
"CC(C)(C)c1ccc2nc(-c3ccc(-c4ncccn4)cc3)[nH]c2c1 [Compound 58, 6-tert-butyl-2-(4-(pyrimidin-2-yl)phenyl)-1H-benzoimidazole]",145,–
FC(F)(F)c1cccnc1-c1ccc(-c2nc3ncc(Br)cc3[nH]2)cc1 [Compound 39],19,–
"Fc1ccc2nc(-c3ccc(-c4ccccn4)cc3)[nH]c2c1 [Compound 52, 6-fluoro-2-(4-(pyridin-2-yl)phenyl)-1H-benzoimidazole]",1400,–
"Fc1ccc2nc(-c3ccc(-c4ncccc4C(F)(F)F)cn3)[nH]c2c1 [Compound 166, 6-fluoro-2-(5-(3-(trifluoromethyl)pyridin-2-yl)pyridin-2-yl)-1H-benzoimidazole]",3900,–
"Fc1ccc2nc(-c3ccc(-c4ncccc4C(F)(F)F)cc3)[nH]c2c1 [Compound 38, 6-fluoro-2-(4-(3-(trifluoromethyl)pyridin-2-yl)phenyl)-1H-benzoimidazole]",454,–
"Clc1cc(-c2nc3ccc(Br)cc3[nH]2)ccc1-c1ccccn1 [Compound 130, 6-bromo-2-(3-chloro-4-(pyridin-2-yl)phenyl)-1H-benzoimidazole]",436,–
"FC(F)(F)c1ccc2nc(-c3ccc(-c4cccc5ccccc45)nc3)[nH]c2c1 [Compound 176, 6-(trifluoromethyl)-2-(6-(naphthalen-1-yl)pyridin-3-yl)-1H-benzoimidazole]",229,–
"FC(F)(F)c1ccc2nc(-c3ccc(-c4ncccc4Cl)cn3)[nH]c2c1 [Compound 136, 3-chloro-6′-(6-trifluoromethyl-1H-benzoimidazole-2-yl)-[2,3′]bipyridine]",952,–
"FC(F)(F)c1cc(Br)c2nc(-c3ccc(-c4nccc(C(F)(F)F)n4)cc3)[nH]c2c1 [Compound 56, 4-bromo-6-(trifluoromethyl)-2-(4-(4-(trifluoromethyl)pyrimidin-2-yl)phenyl)-1H-benzoimidazole]",22,–
"FC(F)(F)c1ccc2nc(-c3cccc(Cn4cc(Cl)cn4)c3)[nH]c2c1 [Compound 195, 2-[3-(4-chloropyrazol-1-ylmethyl)phenyl]-6-trifluoromethyl-1H-benzoimidazole]",1400,–
"FC(F)(F)c1ccc2nc(-c3ccc(Oc4ccccc4)cc3)[nH]c2c1 [Compound 189, 2-(4-phenoxyphenyl-6-trifluoromethyl)-1H-benzoimidazole]",–,90
"FC(F)(F)c1cc(Br)c2nc(-c3ccc(-c4ncccc4Cl)cn3)[nH]c2c1 [Compound 140, 4-bromo-2-(5-(3-chloropyridin-2-yl)pyridin-2-yl)-6-(trifluoromethyl)-1H-benzoimidazole]",66,–
"Clc1ccc2nc(-c3ccc(-c4ncccc4Cl)cn3)[nH]c2c1 [Compound 137, 3-chloro-6′-(6-chloro-1H-benzoimidazole-2-yl)-[2,3′]bipyridine]",569,–
"N#Cc1cccnc1-c1ccc(-c2nc3ccc(C(F)(F)F)cc3[nH]2)cc1 [Compound 59, 2-(4-(6-(trifluoromethyl)-1H-benzoimidazole-2-yl)phenyl)pyridin-3-carbonitrile]",296,–
"CC(C)(C)c1ccc2nc(-c3ccc(-c4ccccn4)cc3)[nH]c2c1 [Compound 47, 6-tert-butyl-2-(4-pyridin-2-ylphenyl)-1H-benzoimidazole]",82,–
"FC(F)(F)c1ccc2nc(-c3ccc(-c4ncccc4C(F)(F)F)cc3Cl)[nH]c2c1 [Compound 97, 2-[2-chloro-4-(3-trifluoromethylpyridin-2-yl)phenyl]-6-trifluoromethyl-1H-benzoimidazole]",644,–
"CC(C)(C)c1ccc2nc(-c3ccc(-c4ncccc4C(F)(F)F)cn3)[nH]c2c1 [Compound 159, 6′-(6-tert-butyl-1H-benzoimidazole-2-yl)-3-trifluoromethyl-[2,3′]bipyridine]",3950,–
"CC(C)(C)c1ccc2nc(-c3ccc(-c4ccccn4)cc3F)[nH]c2c1 [Compound 82, 6-tert-butyl-2-(2-fluoro-4-pyridin-2-yl)phenyl-1H-benzoimidazole]",263,–

Compound,IC50 (human vanilloid-1 (hVR1)) [nM],inhibition at 1 µM (rat TRPV1) [%]
"FC(F)(F)c1cc(Cl)c2nc(-c3ccc(-c4ccccn4)cc3)[nH]c2c1 [Compound 49, 4-chloro-6-(trifluoromethyl)-2-(4-(pyridin-2-yl)phenyl)-1H-benzoimidazole]",284,–
"Brc1cnc2nc(-c3ccc(-c4ccccn4)cc3)[nH]c2c1 [Compound 53, 6-bromo-2-(4-(pyridin-2-yl)phenyl)-1H-imidazo[4,5-b]pyridine]",145,–
"Clc1cc2nc(-c3ccc(-c4ccccn4)cc3)[nH]c2cc1Cl [Compound 50, 5,6-dichloro-2-(4-(pyridin-2-yl)phenyl)-1H-benzoimidazole]",292,–
"FC(F)(F)c1ccc2nc(-c3ccc(-c4ccccn4)cc3)[nH]c2c1 [Compound 48, 6-(trifluoromethyl)-2-(4-(pyridin-2-yl)phenyl)-1H-benzoimidazole]",160,–
"FC(F)(F)c1cc(C(F)(F)F)c2nc(-c3ccc(-c4ncccc4Cl)c4ccccc34)[nH]c2c1 [Compound 106, 2-[4-(3-chloropyridin-2-yl)naphthalen-1-yl]-4,6-bistrifluoromethyl-1H-benzoimidazole]",275,–
"FC(F)(F)c1cc(C(F)(F)F)c2nc(-c3ccc(-c4ccccn4)cc3)[nH]c2c1 [Compound 51, 4,6-bis(trifluoromethyl)-2-(4-(pyridin-2-yl)phenyl)-1H-benzoimidazole]",246,–
"Clc1cc2nc(-c3ccc(-c4ccccn4)cn3)[nH]c2cc1Cl [Compound 173, 5,6-dichloro-2-(5-(pyridin-2-yl)pyridin-2-yl)-1H-benzoimidazole]",46,–
"Clc1ccc2nc(-c3ccc(-c4cccc5ccccc45)nc3)[nH]c2c1 [Compound 177, 6-chloro-2-(6-(naphthalen-1-yl)pyridin-3-yl)-1H-benzoimidazole]",151,–
"Clc1cccnc1-c1ccc(-c2nc3ccc(Br)cc3[nH]2)nc1 [Compound 141, 6-bromo-2-(5-(3-chloropyridin-2-yl)pyridin-2-yl)-1H-benzoimidazole]",2400,–
"FC(F)(F)c1cccnc1-c1ccc(-c2nc3cc(Cl)c(Cl)cc3[nH]2)cc1 [Compound 35, 5,6-dichloro-2-[4-(3-trifluoromethylpyridin-2-yl)phenyl]-1H-benzoimidazole]",39,–
"Clc1cccnc1-c1ccc(-c2nc3ccc(Br)cc3[nH]2)cc1 [Compound 13, 6-bromo-2-(4-(3-chloropyridin-2-yl)phenyl)-1H-benzoimidazole]",289,–
"CC(C)(C)c1ccc2nc(-c3ccc(-c4cccc5ccccc45)nc3)[nH]c2c1 [Compound 174, 6-tert-butyl-2-(6-naphthalen-1-ylpyridin-3-yl)-1H-benzoimidazole]",282,–
"FC(F)(F)c1ccc2nc(-c3ccc(-c4ncccc4C(F)(F)F)c4ccccc34)[nH]c2c1 [Compound 113, 6-trifluoromethyl-2-[4-(3-trifluoromethylpyridin-2-yl)naphthalen-1-yl]-1H-benzoimidazole]",363,–
"FC(F)(F)c1cc(Br)c2nc(-c3ccc(-c4ncccc4Cl)cc3)[nH]c2c1 [Compound 14, 4-bromo-2-(4-(3-chloropyridin-2-yl)phenyl)-6-(trifluoromethyl)-1H-benzoimidazole]",168,–
"FC(F)(F)c1cccnc1-c1ccc(-c2nc3ccc(Cl)cc3[nH]2)nc1 [Compound 160, 6′-(6-chloro-1H-benzoimidazole-2-yl)-3-trifluoromethyl-[2,3′]bipyridine]",258,–
CC(C)(C)c1ccc2nc(-c3ccc(-c4ncccc4C#N)cc3)[nH]c2c1 [Compound 60],150,–
"Clc1cc2nc(-c3ccc(-c4ccccn4)c(Cl)c3)[nH]c2cc1Cl [Compound 129, 5,6-dichloro-2-(3-chloro-4-(pyridin-2-yl)phenyl)-1H-benzoimidazole]",3960,–
